Reference: US20070117839A1, “Two cyclic cinnamide compound” (Eisai R&D Management Co., Ltd., priority 2005, published 2007)

System: Aβ 42 Production
Assay: Quantification of Aβ peptide in culture of neurons from rat fetus brain (Aβ ELISA)
Assay type: cell-based
Conditions: Neuron, 72 h; rat primary neuronal culture (embryonic day 18 Wistar rat cerebral cortex), cultured three days after addition of the compound, Aβx-42 ELISA of the medium; read-out: Activity for reducing Aβ 42 Production IC50
Description: Quantification of Aβ Peptide in Culture of Neurons from Rat Fetus Brain
(1) Rat Primary Neuronal Culture
Primary neuronal cultures were prepared from the cerebral cortex of embryonic day 18 Wistar rats (Charles River Japan, Yokohama, Japan). Specifically, the embryos were aseptically removed from pregnant rats under ether anesthesia. The brain was isolated from the embryo and immersed in an ice-cold L-15 medium (Invitrogen Corp. Cat #11415-064, Carlsbad, Calif., USA, or SIGMA L1518, for example). The cerebral cortex was collected from the isolated brain under a stereoscopic microscope. The cerebral cortex fragments collected were enzymatically treated in an enzyme solution containing 0.25% trypsin (Invitrogen Corp. Cat #15050-065, Carlsbad, Calif., USA) and 0.01% DNase (Sigma D5025, St. Louis, Mo., USA) at 37° C. for 30 minutes to disperse the cells. Here, the enzymatic reaction was stopped by adding inactivated horse serum to the solution. The enzymatically treated solution was centrifuged at 1,500 rpm for five minutes to remove the supernatant. 5 to 10 mL of a medium was added to the resulting cell mass. Neurobasal medium (Invitrogen Corp. Cat #21103-049, Carlsbad, Calif., USA) supplemented with 2% B27 supplement (Invitrogen Corp. Cat #17504-044, Carlsbad, Calif., USA), 25 μM 2-mercaptoethanol (2-ME, WAKO Cat #139-06861, Osaka, Japan), 0.5 mM L-glutamine (Invitrogen Corp. Cat #25030-081, Carlsbad, Calif., USA), and Antibiotics-Antimycotics (Invitrogen Corp. Cat #15240-062, Carlsbad, Calif., USA) was used as the medium (Neurobasal/B27/2-ME). However, the above Neurobasal medium not supplemented with 2-ME (Neurobasal/B27) was used for the assay. The cells were redispersed by mild pipetting of the cell mass to which the medium was added. The cell dispersion was filtered through a 40-μm nylon mesh (Cell Strainer, Cat #35-2340, Becton Dickinson Labware, Franklin Lakes, N.J., USA) to remove the remaining cell mass, and thus a neuronal cell suspension was obtained. The neuronal cell suspension was diluted with the medium and then plated in a volume of 100 μl/well at an initial cell density of 5×10^5 cells/cm^2 in a 96-well polystyrene culture plate pre-coated with poly-L or D-lysine (Falcon Cat #35-3075, Becton Dickinson Labware, Franklin Lakes, N.J., USA coated with poly-L-lysine using the method shown below, or BIOCOAT™ cell environments Poly-D-lysine cell ware 96-well plate, Cat #35-6461, Becton Dickinson Labware, Franklin Lakes, N.J., USA). Poly-L-lysine coating was carried out as follows. 100 μg/ml of a poly-L-lysine (SIGMA P2636, St. Louis, Mo., USA) solution was aseptically prepared with a 0.15 M borate buffer (pH 8.5). 100 μl/well of the solution was added to the 96-well polystyrene culture plate and incubated at room temperature for one or more hours or at 4° C. overnight or longer. The coated 96-well polystyrene culture plate was washed with sterile water four or more times, and then dried or rinsed with, for example, sterile PBS or medium, and used for cell plating. The plated cells were cultured in the culture plate at 37° C. in 5% CO2-95% air for one day. Then, the total amount of the medium was replaced with a fresh Neurobasal/B27/2-ME medium, and then the cells were cultured for further three days.
The drug was added to the culture plate on Day 4 of culture as follows. The total amount of the medium was removed from the wells, and 180 μl/well of Neurobasal medium not containing 2-ME and containing 2% B-27 (Neurobasal/B27) was added thereto. A solution of the test compound in dimethyl sulfoxide (hereinafter abbreviated as DMSO) was diluted with Neurobasal/B27 at 10-fold of the final concentration. 20 μl/well of the dilution was added to and sufficiently mixed with the medium. The final DMSO concentration was 1% or less. Only DMSO was added to the control group.
The cells were cultured for three days after addition of the compound, and the total amount of the medium was collected. […]

| Structure (SMILES) | IC50 [µM] |
| --- | --- |
| COc1cc(/C=C2\CC[C@H]3CCC[C@@H](c4ccc(F)c(F)c4)N3C2=O)ccc1-n1cnc(C)c1 [Example 90, (6S,9aR)-6-(3,4-difluorophenyl)-3-{1-[3-methoxy-4-(4-methyl-1H-imidazol-1-yl)phenyl]-(E)-methylidene}octahydroquinolizin-4-one] | 0.039 |
| COc1cc(/C=C2\CC[C@H]3CCC[C@@H](c4cc(F)c(F)c(F)c4)N3C2=O)ccc1-n1cnc(C)c1 [Example 91, (6S,9aR)-6-(3,4,5-trifluorophenyl)-3-{1-[3-methoxy-4-(4-methyl-1H-imidazol-1-yl)phenyl]-(E)-methylidene}octahydroquinolizin-4-one] | 0.033 |
| COc1cc(/C=C2\CC[C@H]3CCC[C@@H](c4ccc(Cl)cc4)N3C2=O)ccc1-n1cnc(C)c1 [Example 92, (6S,9aR)-6-(4-chlorophenyl)-3-{1-[3-methoxy-4-(4-methyl-1H-imidazol-1-yl)phenyl]-(E)-methylidene}octahydroquinolizin-4-one] | 0.04 |
| COc1cc(/C=C2\CC[C@H]3COC[C@@H](c4ccc(F)c(F)c4)N3C2=O)ccc1-n1cnc(C)c1 [Example 95, (4R,9aS)-4-(3,4-difluorophenyl)-7-{1-[3-methoxy-4-(4-methyl-1H-imidazol-1-yl)phenyl]-(E)-methylidene}hexahydropyrido[2,1-c][1,4]oxazin-6-one] | 0.087 |
| COc1cc(/C=C2\CC[C@H]3COC[C@@H](c4ccc(Cl)cc4)N3C2=O)ccc1-n1cnc(C)c1 [Example 96, (4R,9aS)-4-(4-chlorophenyl)-7-{1-[3-methoxy-4-(4-methyl-1H-imidazol-1-yl)phenyl]-(E)-methylidene}hexahydropyrido[2,1-c][1,4]oxazin-6-one] | 0.065 |
| COc1cc(/C=C2\CC[C@H]3CN(C)C[C@@H](c4cc(F)c(F)c(F)c4)N3C2=O)ccc1-n1cnc(C)c1 [Example 110, (4R,9aS)-7-{1-[3-methoxy-4-(4-methyl-1H-imidazol-1-yl)phenyl]-(E)-methylidene}-2-methyl-4-(3,4,5-trifluorophenyl)octahydropyrido[1,2-a]pyrazin-6-one] | 0.029 |
